Entries after “also recorded” stand apart in the source; their conditions may differ.
Legend:
[1] = system: extracellular norepinephrine and dopamine in prefrontal cortex; conditions: Bymaster et al. 2002a; cited from earlier work
[2] = system: patients with Major Depressive Disorder; test: Phase 2 six week double-blind placebo-controlled study in patients with Major Depressive Disorder; assay type: in vivo, human; conditions: for CGI-I in comparison to placebo (in words): MITT n=56, MMRM
Description: Subjects were identified who were between the ages of 18-65 (inclusive), and met criteria for Major Depressive Disorder in accordance with the Diagnostic and Statistical manual of Mental Disorders-IV-TR and confirmed by the MINI International Neuropsychiatric Interview. […] They were also required to have a BMI≤35 and body weight>45 kg at the Screening Visit. […] Subjects were required to refrain from taking antidepressants, anticonvulsants including gabapentin and pregabalin, neuroleptics, MAO inhibitors, barbiturates, benzodiazepines, stimulants, antipsychotics, lithium, anxiolytics and beta blockers starting two weeks prior to the study and continuing until after the follow-up visit. Subjects were evaluated for safety parameters prior to and throughout the trial by a variety of measures including electrocardiogram, physical examination, vital signs and body weight, and clinical laboratory testing including a lipid panel, CBC with differential and urinalysis. […] Efficacy was determined by measuring the change from baseline in the Montgomery-Åsberg Depression Rating Scale (MADRS), the HAMD-17, the Clinical Global Impression Global Improvement Scale (CGI-1), the Clinical Global Impression-Severity scale (CGI-S) and the Derogatis Interview for Sexual Functioning Self-Report (DISF-SR). […] Comparisons between treatment groups based on MADRS (the primary efficacy parameter), […] and CGI-S scores were analyzed using a mixed-repeated measures (MMRM) analysis model including factors for Subject, Visit, Treatment Arm and Baseline value as a covariate. Adjusted least-squares means from these models are presented. Comparisons between groups were made at each post-baseline visit using model-based contrasts and adjusted degrees of freedom. For these analyses no explicit data imputations were made prior to the analysis. Response and remission categorical data were analyzed using chi-square tests. Inferential analyses of safety data were conducted with ANOVA models or chi-square tests. Two-tail alpha was set to 0.05. All analyses were conducted using SAS version 9.2.

[3] = molecular target: T1, serotonin transporters (SERT) (Homo sapiens, UniProt P31645); test: Brain SERT occupancy by PET with [11C]DASB tracer, Phase 1 single-dose study; assay type: in vivo; conditions: N = 3
T1 construct: from tissue; host or cells: living human brain (3 healthy adult male volunteers), PET with [11C]DASB
Description: This study was a Phase 1, single-dose, randomized, open-label study using positron emission tomography (PET) and [^11C]DASB ([^11C]N,N-dimethyl-2-(2-amino-4-cyanophenylthio) benzylamine) as a PET tracer in 3 healthy, young, adult male volunteer subjects. Using PET imaging, uptake inhibitor effects may be measured based on the proportion of SERT sites blocked in the brain.
(§1) PET scans were done at baseline and at 2 and 7-hour post-dose via measurement of [^11C]DASB tracer binding. Periodic blood samples were collected for evaluation of (+)-1-(3,4-dichlorophenyl)-3-azabicyclo[3.1.0]hexane PK. Safety was monitored by clinical and laboratory evaluations, including vital signs, physical examination, clinical chemistry, hematology, urinalysis, and ECG.

[4] = Safety monitoring in Phase 1 single-dose PET study; assay type: in vivo, human; conditions: single oral dose of 150 mg
Description: as §1

[5] = Plasma concentration in Phase 1 single-dose PET study; assay type: in vivo, human; conditions: ~7 h after single oral dose of 150 mg, N = 3
Description: as §1

[6] = 100 mg, Visit 8, LOCF, Completers, 50% reduction or more of baseline total score
[7] = six week double-blind, MITT n=56, MMRM LS means
[8] = ~2 h after single oral dose of 150 mg
[9] = ~7 h after single oral dose of 150 mg

T1 sequence (P31645 whole entry): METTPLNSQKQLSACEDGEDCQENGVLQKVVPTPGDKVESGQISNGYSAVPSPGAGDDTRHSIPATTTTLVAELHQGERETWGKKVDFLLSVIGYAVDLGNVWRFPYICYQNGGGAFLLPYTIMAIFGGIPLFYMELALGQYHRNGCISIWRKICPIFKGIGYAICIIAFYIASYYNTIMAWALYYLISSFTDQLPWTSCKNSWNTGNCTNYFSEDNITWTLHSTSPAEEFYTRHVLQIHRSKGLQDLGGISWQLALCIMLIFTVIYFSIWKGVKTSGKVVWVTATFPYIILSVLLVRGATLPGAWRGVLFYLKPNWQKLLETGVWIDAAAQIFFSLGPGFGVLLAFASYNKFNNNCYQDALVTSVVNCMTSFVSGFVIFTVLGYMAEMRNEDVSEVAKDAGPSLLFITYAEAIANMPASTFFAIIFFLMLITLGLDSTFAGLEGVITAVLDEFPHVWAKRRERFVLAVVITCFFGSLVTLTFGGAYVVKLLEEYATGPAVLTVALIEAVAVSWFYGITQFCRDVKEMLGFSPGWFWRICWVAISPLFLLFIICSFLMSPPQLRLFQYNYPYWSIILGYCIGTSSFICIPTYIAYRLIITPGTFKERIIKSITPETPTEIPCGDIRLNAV

SMILES: CNCC[C@@H](Oc1ccccc1C)c1ccccc1 [atomoxetine]
- extracellular norepinephrine and dopamine concentrations in prefrontal cortex [1]: increased extracellular norepinephrine and dopamine concentrations

SMILES: Clc1ccc(C23CNCC2C3)cc1Cl (single isomer, unassigned; (+)) [(+)-1-(3,4-dichlorophenyl)-3-azabicyclo[3.1.0]hexane]
- tolerability ([2]; 50 mg/day then 100 mg/day): relatively well tolerated
- remission rates by CGI-S score of ≤2 compared to placebo (in words) ([2]; 100 mg, LOCF): significantly greater remission rates
- Response rate HAMD-17 [2, 6]: (11/20) 55.00%
- Response rate MADRS [2, 6]: (8/20) 40.00%
- Remission rate CGI-S ([2]; 100 mg, Visit 8, LOCF, Completers, CGI-S ≤ 2): (7/20) 35.00%
- Remission rate HAMD-17 ([2]; 100 mg, Visit 8, LOCF, Completers, HAMD-17 ≤ 7): (4/20) 20.00%
- Remission rate MADRS ([2]; 100 mg, Visit 8, LOCF, Completers, MADRS ≤ 12): (6/20) 30.00%
- anhedonia factor score of the MADRS compared to placebo (in words) ([2]; MITT n=56, MMRM LS means, listed as EB-1010): statistically significant improvement
- Anhedonia factor difference placebo vs drug ([2]; Visit 8, MMRM, MITT): 1.41
- CGI-I difference placebo vs drug ([2]; Visit 8, MMRM, MITT): 0.62
- CGI-S difference placebo vs drug ([2]; Visit 8, MMRM, MITT): 0.22
- HAMD-17 difference placebo vs drug ([2]; Visit 8, MMRM, MITT): 3.12
- MADRS difference placebo vs drug ([2]; Visit 8, MMRM, MITT): 3.83
- Anhedonia factor (LS Mean − SE) ([2]; Visit 8, MMRM, MITT, n = 30): 7.92 (0.50)
- CGI-I (LS Mean − SE) ([2]; Visit 8, MMRM, MITT, n = 30): 2.13 (0.20)
- CGI-S (LS Mean − SE) ([2]; Visit 8, MMRM, MITT, n = 30): 3.31 (0.15)
- HAMD-17 (LS Mean − SE) ([2]; Visit 8, MMRM, MITT, n = 30): 14.90 (1.40)
- overall statistical effect size (Cohen's d), MADRS total score ([2]; Week 6, vs placebo): −0.63
- discontinuation due to AEs ([2]; compared with placebo): Two patients in each treatment group discontinued the study early due to AEs
- heart rate, systolic or diastolic blood pressure compared to placebo ([2]; human, in vivo): did not result in significant increases
- serious AEs ([2]; human, in vivo): no serious AEs were reported
- weight gain ([2]; human, in vivo): not associated with significant weight gain
- percentage of patients who reported an adverse treatment event ([2]; placebo 39.28%): 30.30%
- CGI-I in comparison to placebo (in words) ([2]; six week double-blind): statistically significantly superior to placebo
- CGI-S in comparison to placebo (in words) [2, 7]: improvement
- HAM-D in comparison to placebo (in words) [2, 7]: decrease
- MADRS total score in comparison to placebo (in words) [2, 7]: statistically significantly superior
- MADRS total score in comparison to placebo (in words) ([2]; six week double-blind, MITT n=56, MMRM LS means, listed as EB-1010): decrease
- CGI-I in comparison to placebo (in words) ([2]; six week double-blind, listed as EB-1010): decrease
- efficacy in treating depression (in words) ([2]; titrated dose of 50 mg/day then 100 mg/day): effective for treatment of patients with MDD; also recorded: efficacious in treating depression
- Mean SERT Occupancy, Mean [3, 8]: approximately 48%
- Mean SERT Occupancy, Striatum [3, 8]: 48%
- Mean SERT Occupancy, Thalamus [3, 8]: 48%
- Mean SERT Occupancy, Striatum [3, 9]: 32%
- Mean SERT Occupancy, Thalamus [3, 9]: 33%
- discontinuation due to a clinical or laboratory adverse experience [4]: no subjects were discontinued
- laboratory safety tests [4]: no clinically meaningful changes
- physical examinations and ECGs [4]: no clinically meaningful changes from pre-dose evaluations
- vital sign measurements (blood pressure, pulse rate, respiratory rate, oral temperature) [4]: No dose-related changes
- serious adverse events ([4]; 3 healthy male subjects): No serious adverse events were reported
- total adverse events reported by one subject ([4]; rated definitely not related to study drug): 5
- Mean Plasma Concentration [5]: ~405 ng/mL

From patent US20180215710A1, “METHODS FOR INHIBITING NATIVE AND PROMISCUOUS UPTAKE OF MONOAMINE NEUROTRANSMITTERS” (priority 2011, published 2018)
